In assay [1] the test system is Plasmodium falciparum. The experiment in a line: ST_JUDE: Plasmodium falciparum 3D7 EC50 (uM) as measured by SYBR green dye. It is filed as functional, organism-based.
The test system of assay [2] is Plasmodium falciparum. The experiment in a line: ST_JUDE: Plasmodium falciparum K1 EC50 (uM) as measured by SYBR green dye. It counts as functional, organism-based.

For `CN(C)CCCNc1c2ccccc2nc2ccccc12`, the EC50 with Plasmodium falciparum [1] was 0.531 µM; with Plasmodium falciparum [2] it was 3.71 µM.
The corresponding values for `CN(C)c1ccc(Nc2c3ccccc3nc3ccccc23)cc1` are 1.46 µM and 1.11 µM.
The corresponding values for `CCOc1ccc(Nc2cc(C)nc(Nc3ccc(OCC)cc3)n2)cc1` are above 15 µM and above 15 µM.
As for `CCOc1ccc(Nc2nc(N)c3ccccc3n2)cc1`, the results for the EC50 with Plasmodium falciparum [1] and in the assay on Plasmodium falciparum [2] were 3.23 µM and above 15 µM, respectively.
On the same counts, the results for `COc1ccc(N2CCN(C(=S)Nc3ccccc3Cl)CC2C)cc1` (configuration not stated) are 1.4 µM and 3.56 µM.
The corresponding values for `Cc1ccc(-c2nc(C(=O)N(CCC#N)Cc3cccnc3)cs2)cc1F` are 3.34 µM and 4.68 µM.
On the same counts, the results for `CN(C)c1ccc(N2C(N)=NC(N)=NC2(C)C)cc1` are 0.0728 µM and above 15 µM.
Take `CCCCCCOC(=O)c1[nH]c2c(c1C)C(=O)CC(c1ccco1)C2` (configuration not stated): the EC50 was determined as 2.52 µM in the assay with Plasmodium falciparum [1] and 2.03 µM with Plasmodium falciparum [2].
The corresponding values for `CC(C)(C)c1ccc(C(=O)Nc2nc3ccccc3s2)cc1` are above 15 µM and above 15 µM.
Consider `CCc1ccc(C2C(C(=O)OC)=C(N)OC3=C2C(=O)CC(C)(C)C3)cc1` (configuration not stated), for which the EC50 with Plasmodium falciparum [1] and with Plasmodium falciparum [2] was above 15 µM each time.
`Cc1cc(O)nc(-n2nc(C)cc2NC(=O)c2cc(C(F)(F)F)cc(C(F)(F)F)c2)n1`: the EC50 with Plasmodium falciparum [1] and with Plasmodium falciparum [2] was above 15 µM each time.
Consider `CCOc1cccc2sc(N(Cc3cccnc3)C(=O)C3CCCCC3)nc12`, for which the results for the EC50 in the assay on Plasmodium falciparum [1] and in the assay on Plasmodium falciparum [2] were 3.04 µM and 2.23 µM, respectively.
`COC(=O)c1ccc(OCC2c3cc(OC)c(OC)cc3CCN2C(=O)Nc2ccccc2)cc1` (configuration not stated): the EC50 in the assay with Plasmodium falciparum [1] was 4.83 µM; with Plasmodium falciparum [2], 2.93 µM.
Turning to `CC(C)(C)c1ccc(C(=O)Nc2c3c(nn2-c2cccc(Cl)c2)CSC3)cc1`, the EC50 with Plasmodium falciparum [1] and with Plasmodium falciparum [2] was above 15 µM in each case.
Turning to `CCOc1cccc(C2CC(=O)NC3=C2C(=O)CC(c2ccccc2Cl)C3)c1` (configuration not stated), the figures for the EC50 in the assay with Plasmodium falciparum [1] and in the assay on Plasmodium falciparum [2] were 3.72 µM and 3.11 µM, respectively.
The corresponding values for `Cc1ccc2nc(-c3cccnc3)cc(C(=O)Nc3ccc(S(=O)(=O)NC(C)(C)C)cc3)c2c1` are above 15 µM and above 15 µM.
The corresponding values for `O=C(Nc1c2c(nn1-c1ccc([N+](=O)[O-])cc1)CSC2)c1ccc(C(=O)c2ccccc2)cc1` are above 15 µM and 4.08 µM.
As for `O=C(NCCc1ccncc1)Nc1ccc([N+](=O)[O-])cc1`, the EC50 in the assay with Plasmodium falciparum [1] and in the assay with Plasmodium falciparum [2] was above 15 µM in each case.
For the molecule `COc1ccc(C)cc1NC(=S)N1CCN(c2ccc([N+](=O)[O-])cc2)CC1`, the EC50 in the assay with Plasmodium falciparum [1] came out at 1.34 µM; in the assay with Plasmodium falciparum [2], 1.92 µM.
Take `COC(=O)CNC(c1ccccc1)c1cc(Br)ccc1NC(=O)c1ccc(OC)cc1` (configuration not stated): the EC50 with Plasmodium falciparum [1] amounted to 4.22 µM; with Plasmodium falciparum [2] it was 4.33 µM.
Regarding `CCN1CCN(c2cc(C)c3cc(NC(=S)NCCCN4CC(C)CC(C)C4)ccc3n2)CC1` (configuration not stated), the EC50 in the assay on Plasmodium falciparum [1] is 5.34 µM; in the assay on Plasmodium falciparum [2], above 15 µM.
The corresponding values for `C#CCOc1ccc(C2C(C#N)=C(N)Oc3c2ccc2ccccc32)cc1OC` (configuration not stated) are 0.414 µM and 4.08 µM.
On to `Cc1ccc2c(c1)N(C)/C(=C/c1cccc[n+]1CCO)S2`, for which the EC50 in the assay with Plasmodium falciparum [1] stood at 1.78 µM; in the assay on Plasmodium falciparum [2] it was 1.56 µM.
For the molecule `CCOC(=O)C1=C(c2ccccc2)N=c2s/c(=C\c3cccc(O)c3)c(=O)n2C1c1cccc(OC)c1OC` (configuration not stated), the EC50 in the assay with Plasmodium falciparum [1] came to 3.26 µM; in the assay with Plasmodium falciparum [2], 2.18 µM.
As for `COc1ccc(S(=O)(=O)/N=C2/C=C(Sc3nc[nH]n3)C(=O)c3ccccc32)cc1`, the EC50 came to 1.94 µM in the assay on Plasmodium falciparum [1] and 2.34 µM in the assay on Plasmodium falciparum [2].
On the same counts, the results for `COc1ccc(C(O)(CCC(C)C)C(CN2CCOCC2)c2ccc(Cl)cc2)cc1` (configuration not stated) are 4.61 µM and 3.5 µM.
On the same counts, the results for `COC(=O)c1ccc(Nc2nc(NCc3ccccc3)c3ccccc3n2)cc1` are 1.11 µM and above 15 µM.
`CCCC(=O)NC(c1ccc(OC)cc1)c1ccc2cccnc2c1O` (configuration not stated): the EC50 came to 1.65 µM in the assay with Plasmodium falciparum [1] and 2.65 µM in the assay with Plasmodium falciparum [2].
The corresponding values for `Cc1ccc(S(=O)(=O)NCC(c2cccnc2)N2CCN(c3ccc(F)cc3)CC2)cc1` (configuration not stated) are above 15 µM and 9.43 µM.
As to `COc1cc(CNc2cccc(Cl)c2)cc(I)c1OC`, the EC50 with Plasmodium falciparum [1] turned out to be 3.96 µM; in the assay with Plasmodium falciparum [2], 4.1 µM.
`COc1ccc(C2C(C#N)=C(N)Oc3c2ccc2ccccc32)cc1OC` (configuration not stated): the EC50 with Plasmodium falciparum [1] amounted to 1.45 µM; in the assay on Plasmodium falciparum [2] it was 8.61 µM.
On the same counts, the results for `Oc1ccc(Br)cc1CN1CCN(Cc2cccc(Cl)c2)CC1` are 1.79 µM and 0.338 µM.
The corresponding values for `O=C(Nc1cccc(Cl)c1)C1c2ccccc2C(=O)N(C2CCCC2)C1c1cccs1` (configuration not stated) are 0.297 µM and 0.326 µM.
With `COCCn1c(SCC(=O)Nc2cc(C(F)(F)F)ccc2Cl)nc2c(c1=O)SC(C)C2` (configuration not stated), the EC50 was above 15 µM in the assay with Plasmodium falciparum [1] and 0.568 µM in the assay on Plasmodium falciparum [2].
Turning to `CCN(CC)S(=O)(=O)c1ccc(C(=O)NNc2nc3c(C)cccc3s2)cc1`, the EC50 with Plasmodium falciparum [1] and with Plasmodium falciparum [2] was above 15 µM each time.
With `CC(C)Cn1c2c(c(=N)c3c1CCC3)CCCC2`, the EC50 with Plasmodium falciparum [1] is 2.25 µM; in the assay on Plasmodium falciparum [2], 3.78 µM.
On the same counts, the results for `CCOC(=O)CCc1c(C)c2cc3c(c(C)c2oc1=O)OCN(Cc1ccccc1OC)C3` are 3.04 µM and 1.22 µM.
The corresponding values for `C=CCNC(=S)N1CCc2cc(OC)c(OC)cc2C1c1ccccc1` (configuration not stated) are 3.85 µM and 3.73 µM.
On the same counts, the results for `CCOC(=O)N1CCC(NC(=S)Nc2ccc(C(C)(C)C)cc2)CC1` are 9.44 µM and 2.64 µM.
Regarding `Cc1cccc(CN2C(=O)/C(=C\c3ccc(C(=O)N4CCC(N5CCCCC5)CC4)cc3)Oc3ccccc32)c1`, the EC50 is 4.03 µM with Plasmodium falciparum [1] and above 15 µM with Plasmodium falciparum [2].
The corresponding values for `Cc1ccc(CN2CCCN(Cc3ccc(F)cc3)C2c2ccccc2F)cc1` (configuration not stated) are 4.18 µM and above 15 µM.
On the same counts, the results for `COC(=O)c1c(S(=O)(=O)N2CCCN(C)CC2)sc2c1CCN(CC(C)c1ccccc1)C2` (configuration not stated) are above 15 µM and above 15 µM.
The corresponding values for `Cc1nn(-c2ccccc2)c2ncc(C(=O)Nc3cccc(Cl)c3)c(O)c12` are above 15 µM and 4.31 µM.
Turning to `COc1cc2c(cc1OC)C(C(=O)Nc1ccc(C(C)C)cc1)C(c1cccs1)N(C)C2=O` (configuration not stated), the EC50 was above 15 µM in the assay with Plasmodium falciparum [1] and 3.45 µM in the assay on Plasmodium falciparum [2].
The corresponding values for `CCOC(=O)c1ccc2nc(C)cc(Nc3ccc(OC)cc3)c2c1` are 2.86 µM and above 15 µM.
On the same counts, the results for `CC1CN(C(=O)c2ccc(I)cc2)CC(C)O1` (configuration not stated) are 2.73 µM and 1.52 µM.
Turning to `CCN(CC)CCNC(=O)c1ccc2c(c1)sc1nc(-c3ccc(F)cc3)cn12`, the EC50 in the assay with Plasmodium falciparum [1] worked out at 0.974 µM; in the assay on Plasmodium falciparum [2] it was 1.92 µM.
On the same counts, the results for `Oc1c(C(Nc2ccccn2)c2ccc(Cl)c(Cl)c2)ccc2cccnc12` (configuration not stated) are 1.34 µM and 4.36 µM.
Consider `CCO/C(O)=C1\C(C)=NC2=C(C(=O)CC(c3ccccc3)C2)C1c1ccc(Cl)cc1` (configuration not stated), for which the EC50 is 3.85 µM with Plasmodium falciparum [1] and 6.69 µM in the assay with Plasmodium falciparum [2].
On to `Cc1ccc2ccc(C(Nc3ccccn3)c3ccccc3Br)c(O)c2n1` (configuration not stated), for which the EC50 in the assay with Plasmodium falciparum [1] is 1.49 µM; in the assay with Plasmodium falciparum [2], 1.32 µM.
Regarding `CCOc1ccc(NC(=O)CSc2nncc(O)n2)cc1`, the values for the EC50 in the assay with Plasmodium falciparum [1] and in the assay on Plasmodium falciparum [2] were 0.734 µM and 0.994 µM, respectively.
In the case of `CCC(=O)N(Cc1ccccn1)c1nc2ccccc2s1`, the EC50 in the assay with Plasmodium falciparum [1] and in the assay with Plasmodium falciparum [2] was above 15 µM throughout.
Consider `O=C(O)c1cccc(NC2=C(N3CCCCC3)C(=O)c3ccccc3C2=O)c1`, for which the EC50 is above 15 µM in the assay with Plasmodium falciparum [1] and 4.82 µM in the assay with Plasmodium falciparum [2].
For `CC(C)CC(=O)NC(c1ccc(Cl)cc1Cl)c1ccc2cccnc2c1O` (configuration not stated), the EC50 with Plasmodium falciparum [1] and with Plasmodium falciparum [2] was above 15 µM each time.
With `CCC(C)NC(=O)N1CCC(n2nccc2NC(=O)CCCc2ccccc2)CC1` (configuration not stated), the EC50 in the assay with Plasmodium falciparum [1] and in the assay on Plasmodium falciparum [2] was above 15 µM each time.
Turning to `CCCN1C(=O)c2[nH]nc(-c3c(C)cc(C)cc3O)c2C1c1cccc(OC)c1` (configuration not stated), the EC50 with Plasmodium falciparum [1] was found to be 5.09 µM; with Plasmodium falciparum [2], 2.68 µM.
On the same counts, the results for `CCc1c(C)c2cc3c(c(C)c2oc1=O)OCN(CCc1ccccc1OC)C3` are 0.757 µM and 0.223 µM.
The corresponding values for `O=C1C2CC=C(Cl)CC2C(=O)N1CCCCO` (configuration not stated) are 3.32 µM and 1.47 µM.
On the same counts, the results for `COc1[nH]cnc2c3cc(C)ccc3nc1-2` are above 15 µM and above 15 µM.
As to `CCC1CCCCN1CC(O)COCCC12CC3CC(CC(C3)C1)C2` (configuration not stated), the EC50 is 7.2 µM in the assay with Plasmodium falciparum [1] and 2.68 µM in the assay with Plasmodium falciparum [2].
With `COc1cc(C(=O)NCC(C)Oc2cccc(CN(C)Cc3cscn3)c2)cc(OC)c1OC` (configuration not stated), the EC50 in the assay with Plasmodium falciparum [1] and with Plasmodium falciparum [2] was above 15 µM throughout.
`Cc1c(C(=O)NCCCn2ccnc2)sc2nc(-c3cccc([N+](=O)[O-])c3)cn12`: the EC50 with Plasmodium falciparum [1] was above 15 µM; in the assay with Plasmodium falciparum [2] it was 9.22 µM.
For the molecule `CCOc1ccc(NC(=O)C2Sc3nnc(-c4ccccc4)n3NC2c2ccc(OC)cc2)cc1` (configuration not stated), the EC50 in the assay with Plasmodium falciparum [1] and in the assay on Plasmodium falciparum [2] was above 15 µM throughout.
For `CCCCCC(O)(c1ccc(F)cc1)C(CN1CCOCC1)c1ccc(Cl)cc1` (configuration not stated), the results for the EC50 in the assay on Plasmodium falciparum [1] and with Plasmodium falciparum [2] were 1.83 µM and 0.935 µM, respectively.
The corresponding values for `C=CCNc1c2c(nc3ccccc13)CCC2` are 3.24 µM and 1.15 µM.
On the same counts, the results for `Oc1c(CN2CCN(Cc3ccc4cccnc4c3O)CC2)ccc2cccnc12` are above 15 µM and 6.32 µM.
For `Cc1ccc(CN2CCN(Cc3ccc(OCCO)cc3)CC2CCO)o1` (configuration not stated), the 50% effective concentration (EC50) in the assay with Plasmodium falciparum [1] and in the assay with Plasmodium falciparum [2] was above 15 µM each time.
In the case of `C#CCOc1ccc(C2C(C#N)=C(N)Oc3cc(O)ccc32)cc1OCC` (configuration not stated), the values for the EC50 with Plasmodium falciparum [1] and in the assay with Plasmodium falciparum [2] were above 15 µM and 10.2 µM, respectively.
Take `CCCC(=O)NC(c1ccc(Cl)cc1Cl)c1ccc2cccnc2c1O` (configuration not stated): the half-maximal effective concentration (EC50) in the assay with Plasmodium falciparum [1] was determined as 2.24 µM; with Plasmodium falciparum [2], 3.57 µM.
The corresponding values for `CCOc1ccc(C2c3cccn3CCN2C(=O)Nc2cccc(C)c2)cc1` (configuration not stated) are above 15 µM and above 15 µM.
The corresponding values for `Cn1c(-c2ccc([N+](=O)[O-])cc2)[n+](C)c2ccccc21` are above 15 µM and 2.67 µM.

For orientation: EC50 means the concentration giving half of the maximal effect. High values mean weaker potency, low ones greater potency.
